Series [1] is described as follows: Determination of solubility in water (PBS 20 mM, pH 6.8). It is filed as physicochemical. The following applies: PBS buffer, aqueous buffer, thermodynamic from solid; pH 6.8, 20 mM PBS; read-out: Solubility (pH 6.8, g/mL). The procedure: The suspension was filtered through a 0.22 μm PVDF filter, and then diluted to an appropriate concentration with methanol (v=50%) and PBS (v=50%), and the absorbance was measured by a UV spectrophotometer. About 3 mg of compound was accurately weighed, and methanol was added for preparing a stock solution of 1 mg/mL. The above stock solution was taken and prepared into a solution at concentrations of 0.05, 0.04, 0.03, 0.02 and 0.01 mg/mL, respectively, PBS solution (v=50%) was added and the absorbance value was measured. Concentration c (mg/mL) as horizontal ordinate vs absorbance A as longitudinal coordinate was plotted, and a line was fitted for obtaining a standard curve (correlation coefficient greater than 0.998). The solubility of a compound in water was calculated from the standard curve.

For another series, the target named is T1, EGFR-L858R/T790M (Homo sapiens, UniProt P00533, L858R/T790M).
T1 construct: purchased Invitrogen PV4879
T1 sequence (P00533 25-1210 T790M/L858R): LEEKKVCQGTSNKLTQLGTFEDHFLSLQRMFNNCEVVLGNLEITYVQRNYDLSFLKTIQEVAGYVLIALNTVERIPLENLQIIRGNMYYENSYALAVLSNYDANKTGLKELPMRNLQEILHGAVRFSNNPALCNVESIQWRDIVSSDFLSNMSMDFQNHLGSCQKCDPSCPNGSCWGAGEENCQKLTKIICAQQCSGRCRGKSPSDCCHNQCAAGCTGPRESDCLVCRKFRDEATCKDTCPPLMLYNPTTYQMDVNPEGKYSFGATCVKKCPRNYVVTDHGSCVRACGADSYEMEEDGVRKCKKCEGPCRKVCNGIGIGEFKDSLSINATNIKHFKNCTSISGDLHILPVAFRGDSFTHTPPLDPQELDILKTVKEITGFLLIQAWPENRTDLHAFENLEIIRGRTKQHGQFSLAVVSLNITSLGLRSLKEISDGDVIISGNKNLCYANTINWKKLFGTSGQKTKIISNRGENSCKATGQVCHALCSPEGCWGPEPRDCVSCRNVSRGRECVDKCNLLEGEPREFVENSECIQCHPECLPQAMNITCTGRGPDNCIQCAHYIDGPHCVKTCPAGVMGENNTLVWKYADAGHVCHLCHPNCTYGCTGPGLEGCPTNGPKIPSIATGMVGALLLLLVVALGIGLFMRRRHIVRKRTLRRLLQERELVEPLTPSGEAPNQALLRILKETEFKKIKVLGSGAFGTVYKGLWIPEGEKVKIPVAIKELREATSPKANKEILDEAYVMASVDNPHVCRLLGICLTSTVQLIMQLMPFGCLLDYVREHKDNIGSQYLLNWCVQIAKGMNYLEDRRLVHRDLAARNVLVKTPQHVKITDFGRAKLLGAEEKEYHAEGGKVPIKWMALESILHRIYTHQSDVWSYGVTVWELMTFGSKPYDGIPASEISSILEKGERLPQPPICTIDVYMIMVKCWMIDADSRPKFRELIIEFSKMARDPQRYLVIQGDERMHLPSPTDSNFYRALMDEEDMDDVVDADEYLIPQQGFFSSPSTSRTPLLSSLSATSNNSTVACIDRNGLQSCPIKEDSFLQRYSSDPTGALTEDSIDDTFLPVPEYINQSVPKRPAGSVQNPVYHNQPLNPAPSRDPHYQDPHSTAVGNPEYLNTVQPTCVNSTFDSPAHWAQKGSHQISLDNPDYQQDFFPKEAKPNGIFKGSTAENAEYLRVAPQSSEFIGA
The experiment in a line: Kinase activity test (FRET), EGFR T790M/L858R. The series is classed as biochemical. The note with it: EGFR T790M/L858R. The procedure: (§1) EGFR-TK catalyses transfer of one phosphate group of adenosine triphosphate (ATP) to polypeptide substrate, poly(Glu, Tyr)4:1, which is labeled with two fluorescent groups coumarin and fluorescein.
(§2) 2.5 μL of Test Compounds, 5 μL Kinase/Peptide Substrate Mixture, 2.5 μL ATP Solution were added into a 384-well plate, and the 10 μL of reaction system was shaken for 30 s and incubated at room temperature for 1 h. 5 μL of Development Solution was added and the 15 μL of reaction system was shaken for 30 s, and incubated at room temperature for 1 h. […] The inhibitory rates of the compounds at 7 concentration gradients were determined and the IC50 value for each compound was calculated by Origin 8.0 fitting curve.
(§3) 10 concentration gradients from 5.1×10^−11 mol/L to 1.0×10^−6 mol/L were set for all compounds to be tested.
(§4) Compounds were diluted in DMSO for three times from 5.1×10^−9 M to 1×10^−4 M. 4 μL of the compound was dissolved in 96 μL of water to obtain a 4× compound solution. […] The 10 μL kinase reaction consisted of 2.5 μL compound solution, 5 μL kinase/peptide mix, 2.5 μL ATP solution. […] 5 μL of phosphorylated peptide solution, instead of the kinase/peptide mixture, was used as a 100% phosphorylation control. […] The plates were thoroughly mixed and incubated at room temperature for 1.5 hours. 5 μL of Development Solution was added into each well and then incubated for another 1 hour at room temperature, unphosphorylated peptides were cleaved during this period. Finally, 5 μL Stop Reagent was added to quench the reaction. The plates were measured with EnVision Multilabel Reader (Perkin Elmer). The experimental data were calculated using GraphPad Prism version 4.0. Each experiment was repeated more than 3 times.

The next series concerns the target T2, Wild type EGFR (Homo sapiens, UniProt P00533).
T2 construct: purchased Invitrogen PV3872
The experiment in a line: Kinase activity test (FRET), wild type EGFR. The series is classed as biochemical. The following applies: wild type EGFR. The procedure: as §1, §2, §3, §4

Series [2] deals with A431 cells (EGFR wild type). The experiment in a line: Inhibitory activity on cell proliferation, A431. The following applies: Homo sapiens, A-431; A431, 72 hours; read-out: Inhibitory activity on proliferation of cells (IC50, μM) A431. The series is classed as cell-based. The procedure:
(§5) Cell proliferation activity was assessed by MTS assay. Cells were exposed to processing conditions for 72 hours and the number of cells used in each experiment for each cell line was adjusted based on absorbance values (absorbance values at 490 nm, 1.3-2.2). Six concentration gradients (0.1 nM-10 μM) were set for the compounds to be tested, wherein at least 6 sets of parallel controls for each concentration were used.
(§6) H1975, A431 cells were cultured in corresponding media, and cells were passaged at least twice after resuscitation and then used for experiments. Cells at Log phase were trypsinized and resuspended in culture medium. H1975 (1000 cells per well), A431 (2000 cells per well) were seeded in 96-well plates in a volume of 100 μL; and 6 sets of parallel controls and 7 columns were set. The plate was placed in a 37° C. 5% CO2 incubator overnight. Compounds were dissolved in DMSO to a concentration of […], and then the concentration was gradually diluted to 10 μM, 1 μM, 0.1 μM, 0.01 μM, 0.001 μM, 0.0001 μM per liter, respectively. 2 μL of the compound solution was added to 998 μL of medium, and the mixture was thoroughly mixed. 100 μL of the mixture was added to a 96-well plate. […] After culturing for 68 hours, 20 μL of MTT (5 mg/mL) was added. After 4 hours, the supernatant was discarded and 150 μL of DMSO was added. After shaking for 10 minutes, the plate was read with Synergy HT (Bio TeK) (OD490). Data were calculated using GraphPad Prism version 4.0 and IC50 values were obtained using a non-linear regression model of dose response curve.

In series [3] the test system is H1975 cells (EGFR L858R/T790M). Put plainly: Inhibitory activity on cell proliferation, H1975. It is filed as cell-based. The note with it: Homo sapiens, NCI-H1975; H1975, 72 hours; read-out: Inhibitory activity on proliferation of cells (IC50, μM) H1975. The procedure: as §5, §6
The mark [4] stands for this setting: read-out: Inhibitory activity of EGFR on kinase (IC50, nM) T790M/L858R.
[5] abbreviates: read-out: Inhibitory activity of EGFR on kinase (IC50, nM) WT.

The source of these data is patent US11306095B2 (EAST CHINA UNIVERSITY OF SCIENCE AND TECHNOLOGY, priority 2015, dated 2022).

In brackets after ≈: the same amount, converted by molar mass. Where two headings read alike, the source gives them in different places.

T2 sequence (P00533 25-1210): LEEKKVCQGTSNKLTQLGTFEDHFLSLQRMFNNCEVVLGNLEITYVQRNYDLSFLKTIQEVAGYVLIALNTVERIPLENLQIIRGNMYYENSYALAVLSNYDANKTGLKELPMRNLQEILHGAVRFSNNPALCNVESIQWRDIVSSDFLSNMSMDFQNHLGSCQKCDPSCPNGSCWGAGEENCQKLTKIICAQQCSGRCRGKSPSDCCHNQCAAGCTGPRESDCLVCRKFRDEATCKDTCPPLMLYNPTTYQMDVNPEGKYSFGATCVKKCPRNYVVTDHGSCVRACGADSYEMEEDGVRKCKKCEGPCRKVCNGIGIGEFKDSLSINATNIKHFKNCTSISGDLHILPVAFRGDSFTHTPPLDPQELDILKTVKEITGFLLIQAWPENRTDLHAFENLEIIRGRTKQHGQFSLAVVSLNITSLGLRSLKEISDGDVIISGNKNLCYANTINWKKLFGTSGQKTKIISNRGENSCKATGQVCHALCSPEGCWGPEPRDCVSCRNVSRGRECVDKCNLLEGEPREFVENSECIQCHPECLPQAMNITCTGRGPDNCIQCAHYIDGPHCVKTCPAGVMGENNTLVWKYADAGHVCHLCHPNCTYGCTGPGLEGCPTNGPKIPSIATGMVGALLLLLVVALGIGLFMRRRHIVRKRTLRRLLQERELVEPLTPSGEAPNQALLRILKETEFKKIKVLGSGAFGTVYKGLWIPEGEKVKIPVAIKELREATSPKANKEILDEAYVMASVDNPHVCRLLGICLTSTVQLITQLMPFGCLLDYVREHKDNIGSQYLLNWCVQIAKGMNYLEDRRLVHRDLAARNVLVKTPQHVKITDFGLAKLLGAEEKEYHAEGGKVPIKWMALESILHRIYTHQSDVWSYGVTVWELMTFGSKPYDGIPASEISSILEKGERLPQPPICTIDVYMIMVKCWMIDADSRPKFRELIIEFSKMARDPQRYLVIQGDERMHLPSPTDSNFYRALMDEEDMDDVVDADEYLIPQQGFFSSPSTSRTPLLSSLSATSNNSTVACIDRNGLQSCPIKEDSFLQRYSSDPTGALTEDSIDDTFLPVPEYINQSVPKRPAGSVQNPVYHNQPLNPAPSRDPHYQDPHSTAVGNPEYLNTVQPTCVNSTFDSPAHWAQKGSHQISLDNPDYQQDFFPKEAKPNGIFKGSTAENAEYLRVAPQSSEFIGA

Take `C=CC(=O)Nc1cccc(-n2c(=O)c(C(C)C)nc3cnc(Nc4cc(C)c(N5CCN(C)CC5)cc4OC)nc32)c1` [Compound 39, N-(3-(6-isopropyl-2-((2-methoxy-5-methyl-4-(4-methyl-1-piperazinyl)phenyl)amino)-7-oxo-8(7H)pteridinyl)phenyl)acrylamide]: the melting point was 227.5 to 228.5 °C. The solubility in series [1] was less than 10 µg/mL. The IC50 at EGFR-L858R/T790M (setting [4]) was found to be 82.2 nM. On Wild type EGFR (setting [5]), the IC50 was 130 nM. In series [2], the IC50 turned out to be 3.84 µM. Besides, in series [3], the IC50 was 0.572 µM.
With `C=CC(=O)Nc1cccc(-n2c(=O)c(-c3ccccc3)nc3cnc(Nc4ccc(N5CCC(N6CCN(C)CC6)CC5)cc4OC)nc32)c1` [Compound 48, N-(3-(2-((2-methoxy-4-(4-(4-methyl-1-piperazinyl)piperidinyl)phenyl)amino)-7-oxo-6-phenyl-8(7H)pteridinyl)phenyl)acrylamide], the melting point was more than 300 °C. Besides, the solubility in series [1] is less than 10 µg/mL. Moreover, the IC50 at EGFR-L858R/T790M (setting [4]) turned out to be 20.8 nM. Further, the IC50 on Wild type EGFR (setting [5]) was 362 nM. Further, in series [2], the IC50 is 0.64 µM. For the same compound, in series [3], the IC50 turned out to be 0.031 µM.
`C=CC(=O)N1CC[C@H](n2c(=O)cnc3cnc(Nc4ccc(N5CCN(C)CC5)c(C)c4)nc32)C1` [Compound 34, (S)-8-(1-acryloyl-3-pyrrolidinyl)-2-((3-methyl-4-(4-methyl-1-piperazinyl)phenyl)amino)-7(8H)pteridinone] yielded a melting point of 215.5 to 215.7 °C. In addition, in series [1], the solubility was found to be 223 µg/mL (≈ 470 µM). Besides, the IC50 at EGFR-L858R/T790M (setting [4]) was 896 nM. At Wild type EGFR (setting [5]), the IC50 is 86.7 nM. The IC50 in series [2] is more than 10 µM. In series [3], the IC50 is 0.831 µM.
For the compound `C=CC(=O)Nc1cccc(-n2c(=O)c(-c3cc(F)cc(F)c3)nc3cnc(Nc4ccc(N5CCN(C)CC5)cc4OC)nc32)c1` [Compound 55, N-(3-(6-(3,5-difluorophenyl)-2-((2-methoxy-4-(4-methyl-1-piperazinyl)phenyl)amino)-7-oxo-8(7H)pteridinyl)phenyl)acrylamide], the melting point is 291.2 to 291.4 °C. Further, the solubility in series [1] was less than 10 µg/mL. The IC50 at EGFR-L858R/T790M (setting [4]) was 6.1 nM. Besides, at Wild type EGFR (setting [5]), the IC50 is 6.6 nM. In series [2], the IC50 is 1.3 µM. For the same compound, in series [3], the IC50 is 0.262 µM.
`C=CC(=O)N1CC[C@H](n2c(=O)c(C(C)C)nc3cnc(Nc4ccc(N5CCN(C)CC5)c(C)c4)nc32)C1` [Compound 24, (S)-8-(1-acryloyl-3-pyrrolidinyl)-6-isopropyl-2-((3-methyl-4-(4-methyl-1-piperazinyl)phenyl)amino)-7(8H)-pteridinone]: in series [1], the solubility is 2920 µg/mL (≈ 5650 µM). The IC50 on EGFR-L858R/T790M (setting [4]) was 576 nM; on Wild type EGFR (setting [5]), 700 nM; in series [2] it was 3.1 µM; in series [3] it was 2.49 µM.
For `C=CC(=O)N1CCC[C@H](n2c(=O)cnc3cnc(Nc4ccc(N5CCN(C)CC5)cc4OC)nc32)C1` [Compound 3], in series [1], the solubility is more than 11400 µg/mL. Further, the IC50 at EGFR-L858R/T790M (read-out: Inhibitory activity of EGFR on kinase (IC50) T790M/L858R) is more than 10000 nM; on Wild type EGFR (read-out: Inhibitory activity of EGFR on kinase (IC50) WT), more than 10000 nM; in series [2], 60.6 µM; in series [3], 33.7 µM.
Regarding `C=CC(=O)Nc1cccc(-n2c(=O)c(C(C)C)nc3cnc(Nc4ccc(N5CCN(C)CC5)cc4)nc32)c1` [Compound 13, N-(3-(6-isopropyl-2-((4-(4-methyl-1-piperazinyl)phenyl)amino)-7-oxo-8(7H)-pteridinyl)phenyl)acrylamide], the solubility in series [1] is 8.9 µg/mL (≈ 17 µM). Also, the IC50 at EGFR-L858R/T790M (setting [4]) was 5.7 nM; at Wild type EGFR (setting [5]), 4.2 nM; in series [2], 1.48 µM; in series [3], 0.046 µM.
With `C=CC(=O)N1CC[C@H](n2c(=O)c(C(C)C)nc3cnc(Nc4ccc(N5CCN(C)CC5)cc4OC)nc32)C1` [Compound 26, (S)-8-(1-acryloyl-3-pyrrolidinyl)-6-isopropyl-2-((2-methoxy-4-(4-methyl-1-piperazinyl)phenyl)amino)-7(8H)-pteridinone], in series [1], the solubility amounted to 10500 µg/mL (≈ 19700 µM). The IC50 amounted to 559 nM on EGFR-L858R/T790M (setting [4]), 1300 nM on Wild type EGFR (setting [5]), 9.5 µM in series [2] and 3.23 µM in series [3].
Taken in the same sequence, the figures for `C=CC(=O)Nc1cccc(-n2c(=O)cnc3cnc(Nc4ccc(N5CCN(C)CC5)c(C)c4)nc32)c1` [Compound 5] were 122 µg/mL (≈ 246 µM), 0.6 nM, 2.4 nM, 0.82 µM and 0.006 µM.
Consider `C=CC(=O)Nc1cccc(-n2c(=O)cnc3cnc(Nc4ccc(N5CCN(C)CC5)cc4OCCOC)nc32)c1` [Compound 10, N-(3-(2-((2-(methoxyethoxy)-4-(4-methyl-1-piperazinyl)phenyl)amino)-7-oxo-8(7H)-pteridinyl)phenyl)acrylamide], for which, in series [1], the solubility worked out at 399 µg/mL (≈ 716 µM). In addition, the IC50 at EGFR-L858R/T790M (setting [4]) came to 191 nM; at Wild type EGFR (setting [5]) it was 93.7 nM; in series [2], 7.53 µM; in series [3], 2.6 µM.
For `C=CC(=O)Nc1cccc(-n2c(=O)cnc3cnc(Nc4ccc(CCN5CCN(C)CC5)cc4)nc32)c1` [Compound 8, N-(3-(2-((4-(2-(4-methyl-1-piperazinyl)ethyl)phenyl)amino)-7-oxo-8(7H)-pteridinyl)phenyl)acrylamide], in that order: 280 µg/mL (≈ 549 µM), 2.1 nM, 5.7 nM, 0.97 µM and 0.09 µM.
Taken in the same sequence, the figures for `C=CC(=O)N1CCC(n2c(=O)c(-c3ccccc3)nc3cnc(Nc4ccc(N5CCN(C)CC5)c(C)c4)nc32)C1` (stereo not drawn) [Compound 49, 8-(1-acryloyl-3-pyrrolidinyl)-2-((3-methyl-4-(4-methyl-1-piperazinyl)phenyl)amino)-6-phenyl-7(8H)pteridinone] were less than 10 µg/mL, 14.2 nM, 19.2 nM, 0.287 µM and 0.368 µM.
For `Cc1cc(Nc2ncc3nc(-c4ccccc4)c(=O)n([C@H]4CCN(C(=O)/C=C/CN(C)C)C4)c3n2)ccc1N1CCN(C)CC1` [Compound 29, (S,E)-8-(1-(4-(dimethylamino)-2-butenoyl)-3-pyrrolidinyl)-2-((3-methyl-4-(4-methyl-1-piperazinyl)phenyl)amino)-6-phenyl-7(8H)-pteridinone], in that order: 438 µg/mL (≈ 720 µM), 791 nM, 177 nM, 1.6 µM and 3.09 µM.

The melting point is the temperature of the solid-liquid transition.
